Key:
[1] = tested on: platelet aggregation induced by arachidonic acid; experiment: Inhibitory effect on platelet aggregation (arachidonic acid-induced, rabbit platelet-rich plasma); format: cell-based; conditions: arachidonic acid 137 μ moles/liter
Protocol: (1) Measurement of inhibitory effect on platelet aggregation:
Blood was drawn from ether-anesthetized rabbits (weighing 2.5 to 3.5 kg) through a canule inserted into the carotid artery. Immediately then, a 3.8% aqueous solution of sodium citrate was added to the collected blood in a volume of 1/10 of the volume of the blood after addition of the aqueous solution citrate solution. The blood was then centrifuged for 15 minutes at 150 G at room temperature to obtain plasma having platelet suspended therein as a supernatant.
An aliquot of 0.435 ml of platelet-rich plasma was put into the cell of an aggregometer adjusted to a temperature of 37° C. and a stirring speed of 1200 rpm. […] An aqueous solution of arachidonic acid as a platelet aggregation inducing agent (the final concentration of arachidonic acid is 137μ moles/liter) was added, and with stirring, changes in absorbance were measured for 10 minutes.
The effect of platelet aggregation inhibition of the test compound was calculated as follows: [formula] ΔC: a change in absorbance in a control run, ΔS: a change in absorbance when the test compound was added.
In the control run, 2.5 μl of dimethyl sulfoxide was added instead of the test compound.

[2] = tested on: blood pressure (average arterial pressure); experiment: Blood pressure lowering activity in anesthetized rabbits; format: in vivo, rabbit; conditions: average of at least three rabbits
[3] = final concentration 100 μ moles/liter
[4] = final concentration 3 μ moles/liter
[5] = final concentration 10 μ moles/liter
[6] = final concentration 30 μ moles/liter

SMILES	inhibition of platelet aggregation [1, 3]	Blood pressure lowering effect ([2]; 100 μg/kg i.v.)	inhibition of platelet aggregation ([1]; final concentration 1 μ moles/liter)	inhibition of platelet aggregation [1, 4]	inhibition of platelet aggregation [1, 5]	inhibition of platelet aggregation [1, 6]	Blood pressure lowering effect ([2]; 10 μg/kg i.v.)	Blood pressure lowering effect ([2]; 30 μg/kg i.v.)
CCOC(=O)c1c(C)cc2cnc(Cc3ccccc3)nc2c1C [Example 7, 2-benzyl-7-ethoxycarbonyl-6,8-dimethylquinazoline]	100%	18 mmHg	–	–	–	–	–	–
CCOC(=O)c1c(C)cc2cnc(C)nc2c1C [Example 6, 2-methyl-7-ethoxycarbonyl-6,8-dimethylquinazoline]	100%	12 mmHg	–	–	–	–	–	–
CCOC(=O)c1c(C)cc2cnc(-c3ccccc3F)nc2c1C [Example 4, 2-(o-fluorophenyl)-7-ethoxycarbonyl-6,8-dimethylquinazoline]	–	32 mmHg	100%	100%	–	–	–	–
CCOC(=O)c1c(C)cc2cnc(-c3ccccc3Cl)nc2c1C [Example 1, 2-(o-chlorophenyl)-7-ethoxycarbonyl-6,8-dimethylquinazoline]	–	49 mmHg	–	100%	100%	100%	12 mmHg	22 mmHg
CCOC(=O)c1c(C)cc2cnc(-c3ccccc3)nc2c1C [Example 2, 2-phenyl-7-ethoxycarbonyl-6,8-dimethylquinazoline]	–	15 mmHg	–	–	100%	100%	–	–
CCOC(=O)c1c(C)cc2cnc(-c3ccccc3C)nc2c1C [Example 3, 2-(o-methylphenyl)-7-ethoxycarbonyl-6,8-dimethylquinazoline]	–	20 mmHg	–	–	100%	100%	–	–
CCOC(=O)c1c(C)cc2cnc(-c3ccccc3C(F)(F)F)nc2c1C [Example 5, 2-(o-trifluoromethylphenyl)-7-ethoxycarbonyl-6,8-dimethylquinazoline]	100%	25 mmHg	–	–	–	–	–	–

— patent US4517189A, “2,6,7,8-Substituted quinazolines, process for production thereof, and use thereof” (Showa Denko K.K., priority 1983, dated 1985)
